Source: PubChem BioAssay AID1845213 (Molecular Pharmacology Branch, DTP, NCI, 2023)
Activity calls are given as the source filed them. Rule for the calls: active = viability on the fitted dose curve at most 10% of control; inactive = the rest.

System: NCI-H841 complex tumor spheroid viability
Assay: Anticancer human tumor NCI-H841 cell line growth inhibition;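 for IC50: spheroids exposed to compounds for 7 days before readout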;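 for viability, T/C: spheroids exposed to compounds for 7 days before readout; 100% = DMSO vehicle control wells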
Details: for viability, T/C: stronger effect = lower value
Outline: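 Single agents and combinations were tested on spheroids built from tumor cells plus HUVEC and hMSC, at half-log dilutions starting at or near clinical Cmax, else 10 microM; final DMSO 0.25% (v/v).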

[1] = curve of first compound, second compound 1 µM
[2] = curve of first compound, second compound 3.16 µM
[3] = curve of first compound, second compound 10 µM
[4] = curve of first compound, second compound 31.6 µM
[5] = curve of first compound, second compound 100 µM
[6] = second compound 1 µM, first compound 0.0316 µM
[7] = second compound 1 µM, first compound 0.1 µM
[8] = second compound 1 µM, first compound 0.316 µM
[9] = second compound 1 µM, first compound 1 µM
[10] = second compound 1 µM, first compound 3.16 µM
[11] = second compound 1 µM, first compound 10 µM
[12] = second compound 3.16 µM, first compound 0.0316 µM
[13] = second compound 3.16 µM, first compound 0.1 µM
[14] = second compound 3.16 µM, first compound 0.316 µM
[15] = second compound 3.16 µM, first compound 1 µM
[16] = second compound 3.16 µM, first compound 3.16 µM
[17] = second compound 3.16 µM, first compound 10 µM
[18] = second compound 10 µM, first compound 0.0316 µM
[19] = second compound 10 µM, first compound 0.1 µM
[20] = second compound 10 µM, first compound 0.316 µM
[21] = second compound 10 µM, first compound 1 µM
[22] = second compound 10 µM, first compound 3.16 µM
[23] = second compound 10 µM, first compound 10 µM
[24] = second compound 31.6 µM, first compound 0.0316 µM
[25] = second compound 31.6 µM, first compound 0.1 µM
[26] = second compound 31.6 µM, first compound 0.316 µM
[27] = second compound 31.6 µM, first compound 1 µM
[28] = second compound 31.6 µM, first compound 3.16 µM
[29] = second compound 31.6 µM, first compound 10 µM
[30] = second compound 100 µM, first compound 0.0316 µM
[31] = second compound 100 µM, first compound 0.1 µM
[32] = second compound 100 µM, first compound 0.316 µM
[33] = second compound 100 µM, first compound 1 µM
[34] = second compound 100 µM, first compound 3.16 µM
[35] = second compound 100 µM, first compound 10 µM

`COc1cc(C)[nH]c(=O)c1CN1CCc2c(Cl)cc(C(OC)C3COC3)c(Cl)c2C1=O` (stereo not given) + Cn1nnc2c(C(N)=O)ncn2c1=O was tested, and the IC50 [1] was 398 nM, the IC50 [2] was 547 nM and the IC50 [3] was 367 nM. The IC50 [4] was 428 nM, the IC50 [5] was 394 nM and the viability, T/C [6] was 79.7%. For the same compound, the viability, T/C [7] was 67.1%, the viability, T/C [8] was 48.4% and the viability, T/C [9] was 45.4%. The viability, T/C [10] was 33.9%, the viability, T/C [11] was 31.3% and the viability, T/C [12] was 85%. For the same compound, the viability, T/C [13] was 63.5%, the viability, T/C [14] was 54.5% and the viability, T/C [15] was 47.8%. The viability, T/C [16] was 38.5%, the viability, T/C [17] was 32.8% and the viability, T/C [18] was 86%. For the same compound, the viability, T/C [19] was 67%, the viability, T/C [20] was 50.6% and the viability, T/C [21] was 41.1%. The viability, T/C [22] was 35.9%, the viability, T/C [23] was 30.9% and the viability, T/C [24] was 83.9%. For the same compound, the viability, T/C [25] was 70.3%, the viability, T/C [26] was 49.8% and the viability, T/C [27] was 41.8%. For the same compound, the viability, T/C [28] was 36.9%, the viability, T/C [29] was 27% and the viability, T/C [30] was 87.3%. For the same compound, the viability, T/C [31] was 77.6%, the viability, T/C [32] was 51.2% and the viability, T/C [33] was 39.9%. For the same compound, the viability, T/C [34] was 36.5% and the viability, T/C [35] was 30.8%.
Work on `CNCc1ccc(-c2cc(-c3nc(-c4ccc(S(=O)(=O)C(C)C)cc4)cnc3N)on2)cc1` + Cn1nnc2c(C(N)=O)ncn2c1=O yielded an IC50 [1] of 63 nM, an IC50 [2] of 63.5 nM and an IC50 [3] of 177 nM. For the same compound, the IC50 [4] was 88 nM, the IC50 [5] was 49.8 nM and the viability, T/C (second compound 1 µM, first compound 0.00949 µM) was 96.3%. The viability, T/C (second compound 1 µM, first compound 0.03 µM) was 94.5%, the viability, T/C (second compound 1 µM, first compound 0.0949 µM) was 25.5% and the viability, T/C (second compound 1 µM, first compound 0.3 µM) was 33.9%. For the same compound, the viability, T/C (second compound 1 µM, first compound 0.949 µM) was 4.57%, the viability, T/C (second compound 1 µM, first compound 3 µM) was 1.05% and the viability, T/C (second compound 3.16 µM, first compound 0.00949 µM) was 97.7%. The viability, T/C (second compound 3.16 µM, first compound 0.03 µM) was 74.5%, the viability, T/C (second compound 3.16 µM, first compound 0.0949 µM) was 33% and the viability, T/C (second compound 3.16 µM, first compound 0.3 µM) was 21.8%. It also gave a viability, T/C (second compound 3.16 µM, first compound 0.949 µM) of 3.41%, a viability, T/C (second compound 3.16 µM, first compound 3 µM) of 0.87% and a viability, T/C (second compound 10 µM, first compound 0.00949 µM) of 101%. For the same compound, the viability, T/C (second compound 10 µM, first compound 0.03 µM) was 99.2%, the viability, T/C (second compound 10 µM, first compound 0.0949 µM) was 89.8% and the viability, T/C (second compound 10 µM, first compound 0.3 µM) was 16.2%. For the same compound, the viability, T/C (second compound 10 µM, first compound 0.949 µM) was 2.29%, the viability, T/C (second compound 10 µM, first compound 3 µM) was 5.12% and the viability, T/C (second compound 31.6 µM, first compound 0.00949 µM) was 97.5%. For the same compound, the viability, T/C (second compound 31.6 µM, first compound 0.03 µM) was 96.3%, the viability, T/C (second compound 31.6 µM, first compound 0.0949 µM) was 45% and the viability, T/C (second compound 31.6 µM, first compound 0.3 µM) was 17.2%. For the same compound, the viability, T/C (second compound 31.6 µM, first compound 0.949 µM) was 1.91%, the viability, T/C (second compound 31.6 µM, first compound 3 µM) was 7.45% and the viability, T/C (second compound 100 µM, first compound 0.00949 µM) was 92.9%. For the same compound, the viability, T/C (second compound 100 µM, first compound 0.03 µM) was 48%, the viability, T/C (second compound 100 µM, first compound 0.0949 µM) was 58.3% and the viability, T/C (second compound 100 µM, first compound 0.3 µM) was 5.09%. For the same compound, the viability, T/C (second compound 100 µM, first compound 0.949 µM) was 8.18% and the viability, T/C (second compound 100 µM, first compound 3 µM) was 0.32%.
Work on `[2H]c1nc(C)nc([2H])c1-c1cc(NC[C@@H](C)c2cccc3c(C(=O)NC)ccnc23)ncn1` + Cn1nnc2c(C(N)=O)ncn2c1=O yielded an IC50 [1] of over 10000 nM, an IC50 [2] of over 10000 nM and an IC50 [3] of over 10000 nM. The IC50 [4] was over 10000 nM, the IC50 [5] was over 10000 nM and the viability, T/C [6] was 98%. For the same compound, the viability, T/C [7] was 97.6%, the viability, T/C [8] was 94.8% and the viability, T/C [9] was 95%. It also gave a viability, T/C [10] of 93.2%, a viability, T/C [11] of 91.4% and a viability, T/C [12] of 98.8%. It also gave a viability, T/C [13] of 99.8%, a viability, T/C [14] of 101% and a viability, T/C [15] of 101%. For the same compound, the viability, T/C [16] was 95%, the viability, T/C [17] was 99.3% and the viability, T/C [18] was 99.6%. The viability, T/C [19] was 99.8%, the viability, T/C [20] was 97.7% and the viability, T/C [21] was 101%. For the same compound, the viability, T/C [22] was 98.9%, the viability, T/C [23] was 96.5% and the viability, T/C [24] was 97%. For the same compound, the viability, T/C [25] was 97.7%, the viability, T/C [26] was 100% and the viability, T/C [27] was 98%. For the same compound, the viability, T/C [28] was 97.4%, the outcome [29] was “inactive” and the viability, T/C [30] was 93.4%. For the same compound, the viability, T/C [31] was 95.7%, the viability, T/C [32] was 92.5% and the viability, T/C [33] was 95.9%. The viability, T/C [34] was 95.8% and the viability, T/C [35] was 91.2%.
With `COc1cc2c(cc1O)CCNC21CSC2c3c(OC(C)=O)c(C)c4c(c3C(COC1=O)N1C(O)C3Cc5cc(C)c(OC)c(O)c5C(C21)N3C)OCO4` (stereo not given) the viability, T/C (compound 30 pM) was 102% [middle of 10 runs], the viability, T/C (compound 94.9 pM) was 99.5% [middle of 10 runs] and the viability, T/C (compound 0.000949 µM) was 3.1% [middle of 10 runs]. The viability, T/C (compound 0.003 µM) was 0.11% [middle of 4 runs] and the IC50 (compound alone, run of 12/16/2019) was 0.258 nM [middle of 10 runs].
